From US12084459B2, “2-(4-{1-[6-(4-isopropyl-phenyl)-imidazo[2,1-b][1,3,4]thiadiazol-2-yl]-piperidin-4-ylmethyl}-piperazin-1-yl)-ethanol and use thereof” (Urifer Ltd., priority 2020, dated 2024)

Assay: toxicity in mice: body weight and observations after IP administration
Assay type: in vivo
Settings: for body weight / body weight change (% wt/wt): male mice
Summary of the method: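 Mice (female where stated) received the test compound intraperitoneally on day 1, dissolved in 20% hydroxypropylcyclodextrane at an administration volume of 10 ml/kg. Toxicity was assessed from body weight, body weight change (% wt/wt) and observations of the animals after administration.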

## CC(C)c1ccc(-c2cn3nc(N4CCC(CN5CCN(CCO)CC5)CC4)sc3n2)cc1 [Compound E266, 2-(4-{1-[6-(4-isopropyl-phenyl)-imidazo[2,1-b][1,3,4]thiadiazol-2-yl]-piperidin-4-ylmethyl}-piperazin-1-yl)-ethanol]
100 mg/kg IP, day 1
  body weight: 37.4 g
  body weight change (% wt/wt): 0%
100 mg/kg IP, day 2
  body weight: 38.2 g
  body weight change (% wt/wt): 2.1%
100 mg/kg IP, day 3
  body weight: 38 g
  body weight change (% wt/wt): 1.6%
100 mg/kg IP, day 4
  body weight: 37.3 g
  body weight change (% wt/wt): −0.3%
100 mg/kg IP, day 5
  body weight: 37.9 g
  body weight change (% wt/wt): 1.3%
100 mg/kg IP, day 6
  body weight: 37.5 g
  body weight change (% wt/wt): 0.3%
100 mg/kg IP, day 7
  body weight: 37.4 g
  body weight change (% wt/wt): 0.0%
100 mg/kg IP, day 8
  body weight: 37.5 g
  body weight change (% wt/wt): 0.3%
100 mg/kg IP, day 9
  body weight: 36.8 g
  body weight change (% wt/wt): −1.6%
100 mg/kg IP, day 10
  body weight: 37.2 g
  body weight change (% wt/wt): −0.5%
100 mg/kg IP, day 11
  body weight: 37.3 g
  body weight change (% wt/wt): −0.3%
100 mg/kg IP, day 12
  body weight: 37.3 g
  body weight change (% wt/wt): −0.3%
100 mg/kg IP, day 13
  body weight: 37.7 g
  body weight change (% wt/wt): 0.8%
100 mg/kg IP, day 14
  body weight: 38.1 g
  body weight change (% wt/wt): 1.9%
100 mg/kg IP, day 15
  body weight: 36.6 g
  body weight change (% wt/wt): −2.1%
200 mg/kg IP, day 1
  body weight: 37.8 g
  body weight change (% wt/wt): 0%
200 mg/kg IP, day 2
  body weight: 38.1 g
  body weight change (% wt/wt): 0.8%
200 mg/kg IP, day 3
  body weight: 38.2 g
  body weight change (% wt/wt): 1.1%
200 mg/kg IP, day 4
  body weight: 38.3 g
  body weight change (% wt/wt): 1.3%
200 mg/kg IP, day 5
  body weight: 37.6 g
  body weight change (% wt/wt): −0.5%
200 mg/kg IP, day 6
  body weight: 38 g
  body weight change (% wt/wt): 0.5%
200 mg/kg IP, day 7
  body weight: 39.2 g
  body weight change (% wt/wt): 3.7%
200 mg/kg IP, day 8
  body weight: 39.7 g
  body weight change (% wt/wt): 5.0%
200 mg/kg IP, day 9
  body weight: 38 g
  body weight change (% wt/wt): 0.5%
200 mg/kg IP, day 10
  body weight: 37.9 g
  body weight change (% wt/wt): 0.3%
200 mg/kg IP, day 11
  body weight: 38.2 g
  body weight change (% wt/wt): 1.1%
200 mg/kg IP, day 12
  body weight: 38.7 g
  body weight change (% wt/wt): 2.4%
200 mg/kg IP, day 13
  body weight: 37.9 g
  body weight change (% wt/wt): 0.3%
200 mg/kg IP, day 14
  body weight: 38.8 g
  body weight change (% wt/wt): 2.6%
200 mg/kg IP, day 15
  body weight: 37.6 g
  body weight change (% wt/wt): −0.5%
400 mg/kg IP, day 1
  body weight: 40.3 g
  body weight change (% wt/wt): 0%
400 mg/kg IP, day 2
  body weight: 40 g
  body weight change (% wt/wt): −.07%
400 mg/kg IP, day 3
  body weight: 41.3 g
  body weight change (% wt/wt): 2.5%
400 mg/kg IP, day 4
  body weight: 40.8 g
  body weight change (% wt/wt): 1.2%
400 mg/kg IP, day 5
  body weight: 39.6 g
  body weight change (% wt/wt): −1.7%
400 mg/kg IP, day 6
  body weight: 40.4 g
  body weight change (% wt/wt): 0.2%
400 mg/kg IP, day 7
  body weight: 40.5 g
  body weight change (% wt/wt): 0.5%
400 mg/kg IP, day 8
  body weight: 40.7 g
  body weight change (% wt/wt): 1.0%
400 mg/kg IP, day 9
  body weight: 39.4 g
  body weight change (% wt/wt): −2.2%
400 mg/kg IP, day 10
  body weight: 40 g
  body weight change (% wt/wt): −0.7%
400 mg/kg IP, day 11
  body weight: 39.7 g
  body weight change (% wt/wt): −1.5%
400 mg/kg IP, day 12
  body weight: 40.1 g
  body weight change (% wt/wt): −0.5%
400 mg/kg IP, day 13
  body weight: 40.1 g
  body weight change (% wt/wt): −0.5%
400 mg/kg IP, day 14
  body weight: 40.2 g
  body weight change (% wt/wt): −0.2%
400 mg/kg IP, day 15
  body weight: 39.3 g
  body weight change (% wt/wt): −2.5%
mice, IP administration
  observations after administration: a decrease in locomotor and piloererection right after administration were observed, these were reversible and full recovery was observed
